Results as given in PubChem BioAssay AID248 (DTP/NCI, 2004).
Toxic doses and inconclusive results are not listed. Rule as the data show it: active = T/C of 150% or more; inactive = T/C below 125%.

Test system: L1210 leukemia ip in BDF1 mice, survival T/C
Test: NCI In Vivo Anticancer Drug Screen. Data for tumor model L1210 Leukemia (intraperitoneal) in B6D2F1 (BDF1) mice
Conditions: endpoint: mean survival time, higher = longer survival
Outline: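 Tumor cells were implanted, animals were treated, and survival was followed. The result divides the treated measurement by the vehicle-control measurement.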

Measured: T/C

CCCN1CC2=C1C(=O)c1ccccc1C2=O
inactive: dose: 100.0 mg/kg/injection, schedule: Q01DX001 (ip), vehicle: other 97 % of control | dose: 200.0 mg/kg/injection, schedule: Q01DX001 (ip), vehicle: other 93 % of control | dose: 400.0 mg/kg/injection, schedule: Q01DX001 (ip), vehicle: other 87 % of control

O=C(O)C(F)(F)C(F)(Cl)C(F)(F)C(F)(Cl)C(F)(F)C(F)(Cl)C(F)(F)Cl (stereo not drawn) (tested in a mixture with another compound)
inactive: dose: 100.0 mg/kg/injection, schedule: Q04DX003 (ip), vehicle: saline 90 % of control | dose: 200.0 mg/kg/injection, schedule: Q04DX003 (ip), vehicle: saline 101 % of control | dose: 400.0 mg/kg/injection, schedule: Q04DX003 (ip), vehicle: saline 101 % of control

CC(=O)CCc1ccc(Cl)cc1
inactive: dose: 50.0 mg/kg/injection, schedule: Q01DX001 (ip), vehicle: saline 101 % of control | dose: 100.0 mg/kg/injection, schedule: Q01DX001 (ip), vehicle: saline 107 % of control | dose: 100.0 mg/kg/injection, schedule: Q04DX002 (ip), vehicle: Klucel (hydroxypropylcellulose) (HPC) 105 % of control | dose: 200.0 mg/kg/injection, schedule: Q01DX001 (ip), vehicle: saline 107 % of control | dose: 200.0 mg/kg/injection, schedule: Q04DX002 (ip), vehicle: Klucel (hydroxypropylcellulose) (HPC) 105 % of control | dose: 400.0 mg/kg/injection, schedule: Q01DX001 (ip), vehicle: saline 106 % of control | dose: 400.0 mg/kg/injection, schedule: Q04DX002 (ip), vehicle: Klucel (hydroxypropylcellulose) (HPC) 105 % of control
